Experimental data as given in paper PMC8301602 (AIChE journal. American Institute of Chemical Engineers, 2020).
Where two headings read alike, the source gives them in different places.

Experiments:
iLOV = iLOV (Arabidopsis thaliana, UniProt P93025, S394T/S409G/C426A/I452T/F470L/M475V); test: fluorescence titration of apo protein, emission at […] nm; format: binding; details: PBS; noncooperative 1:1 fit, protein concentration fitted
EcFbFP = target: T1, EcFbFP (Bacillus subtilis, UniProt O34627, C62A); test: as above; format: binding
T1 sequence (O34627 1-137 C62A limits assumed): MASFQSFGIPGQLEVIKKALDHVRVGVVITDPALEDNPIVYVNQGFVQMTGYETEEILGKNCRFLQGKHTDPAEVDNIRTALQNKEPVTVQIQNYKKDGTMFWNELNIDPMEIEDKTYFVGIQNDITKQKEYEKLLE

EcFbFP (B. subtilis) [1] = test: SEC
EcFbFP (B. subtilis) [2] = test: SEC; remark: listed apart in the source

iLOV, sequence (P93025 387-496 S394T/S409G/C426A/I452T/F470L/M475V limits assumed): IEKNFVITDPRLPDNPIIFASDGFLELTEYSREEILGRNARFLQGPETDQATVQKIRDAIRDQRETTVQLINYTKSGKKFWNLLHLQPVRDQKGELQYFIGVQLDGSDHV

Molecule	Kd (iLOV)	Kd (EcFbFP)	stoichiometry N (EcFbFP (B. subtilis) [1])	stoichiometry N (EcFbFP (B. subtilis) [2])
Cc1cc2nc3c(=O)[nH]c(=O)nc-3n(C[C@H](O)[C@H](O)[C@H](O)COP(=O)(O)OP(=O)(O)OC[C@H]3O[C@@H](n4cnc5c(N)ncnc54)[C@H](O)[C@@H]3O)c2cc1C [FAD]	180 ± 30 nM	130 ± 20 nM		
Cc1cc2nc3c(=O)[nH]c(=O)nc-3n(C[C@H](O)[C@H](O)[C@H](O)COP(=O)(O)O)c2cc1C [FMN]	230 ± 20 nM	180 ± 30 nM		
Cc1cc2nc3c(=O)[nH]c(=O)nc-3n(C[C@H](O)[C@H](O)[C@H](O)CO)c2cc1C [riboflavin]	890 ± 170 nM	760 ± 150 nM		
EcFbFP			2	2
